Biological target: T1, PAR1 (Homo sapiens, UniProt P25116)
T1 construct: endogenous in cells; host or cells: washed blood platelets from healthy volunteers
T1 sequence (P25116 22-425): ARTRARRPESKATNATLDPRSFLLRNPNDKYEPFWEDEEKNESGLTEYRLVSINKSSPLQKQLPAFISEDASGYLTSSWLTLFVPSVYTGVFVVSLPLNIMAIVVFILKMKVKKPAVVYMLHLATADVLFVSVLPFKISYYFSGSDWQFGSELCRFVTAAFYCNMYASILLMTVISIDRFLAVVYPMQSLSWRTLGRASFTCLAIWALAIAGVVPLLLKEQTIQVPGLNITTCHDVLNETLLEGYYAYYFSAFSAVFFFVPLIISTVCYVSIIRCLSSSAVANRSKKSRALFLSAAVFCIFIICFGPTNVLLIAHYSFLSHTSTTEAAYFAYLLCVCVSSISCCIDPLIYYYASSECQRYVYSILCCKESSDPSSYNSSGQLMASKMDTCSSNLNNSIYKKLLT
Test: Inhibition of PAR1-mediated platelet aggregation induced by TRAP (thrombin receptor-activating peptide), 96-well format
Type: cell-based
Settings: washed platelets from healthy volunteers; TRAP as agonist; AUC of kinetics at 650 nm, 37° C., 20 minutes
Procedure: PAR1 Determination Method: Inhibition of PAR1-Mediated Platelet Aggregation
The pharmacological testing of the substances took place in platelet aggregation induced by TRAP (thrombin receptor-activating peptide) in 96-well format. For this purpose, blood was taken from healthy volunteers in 20 ml syringes containing 2 ml of 3.13% strength sodium citrate solution. After centrifugation at 150×g for 20 minutes, the platelet-rich plasma (PRP) was separated off and mixed with 1 μl of PGE1 solution (500 μg/ml in ethanol)/ml of PRP. Incubation at RT for 5 minutes was followed by centrifugation at 120×g for 15 minutes to remove the leukocytes. The leukocyte-free PRP was transferred in 5 ml portions into 15 ml PP tubes and centrifuged at 360×g for 15 minutes in order to pellet the platelets. The plasma was then decanted off and the platelet sediment from 5 ml of PRP was resuspended in 1 ml of Tyrode's (120 mM NaCl, 2.6 mM KCl, 12 mM NaHCO3, 0.39 mM NaH2PO4×H2O, 10 mM HEPES, 0.35% BSA (Bovine Serum Albumin), 5.5 mM glucose, pH 7.4) and adjusted with Tyrode's to a platelet count of 3×10^5/microliter (μl). 13 μl of this cell suspension were then mixed with 866 μl of 10 mM CaCl2 solution, and 120 μl thereof were pipetted into each well of a 96-well plate containing 15 μl of the substance to be tested. After incubation at RT in the dark for 30 minutes, 15 μl of a TRAP solution (70-100 μM) were added as agonist, and kinetics were recorded at 650 nm in a SpectraMax 340 at 37° C. for 20 minutes while shaking. The areas under the curves of negative control (Tyrode's/DMSO) and positive control (15 μl of agonist/DMSO) were calculated and the difference was fixed as the 100% value. The substances to be tested were pipetted as serial dilutions in duplicate determination, the AUC was likewise determined for each substance concentration, and the % inhibition of the AUC compared with the control was calculated. On the basis of the % inhibition, the IC50 was calculated by nonlinear regression analysis according to the 4-parameter equation.

Compared with `CC(C)C1CC(=O)C2=C(C1)Nc1[nH]nc(C(=O)NCC3CC3)c1C2/C=C/c1ccc(-c2cccc(F)c2)cn1` (mixture of isomers) [Example 10, 4-{(E)-2-[5-(3-Fluorophenyl)pyridin-2-yl]vinyl}-7-isopropyl-5-oxo-4,5,6,7,8,9-hexahydro-1H-pyrazolo[3,4-b]quinoline-3-cyclopropylmethylcarboxamide], `CC1CC(=O)C2=C(C1)Nc1[nH]nc(C(=O)NCC3CC3)c1C2/C=C/c1ccc(-c2cccc(F)c2)cn1` (single isomer, unassigned) [diastereomer 1 from example 13] is 3.7-fold higher in IC50: 1.39 µM for the first, 5.12 µM for the second. The first is the more potent here.

Compared with `CC(C)NC(=O)c1n[nH]c2c1C(/C=C/c1ccc(-c3cccc(F)c3)cn1)C1=C(CC(C)(C)CC1=O)N2` (stereo not shown) [Example 8, 4-{(E)-2-[5-(3-Fluorophenyl)pyridin-2-yl]vinyl}-7,7-dimethyl-5-oxo-4,5,6,7,8,9-hexahydro-1H-pyrazolo[3,4-b]quinoline-3-isopropylcarboxamide], `CC(C)(C)CNC(=O)c1n[nH]c2c1C(/C=C/c1ccc(-c3cccc(F)c3)cn1)C1=C(CC(C)(C)CC1=O)N2` (stereo not shown) [Example 15, 4-{(E)-2-[5-(3-Fluorophenyl)pyridin-2-yl]vinyl}-7,7-dimethyl-5-oxo-4,5,6,7,8,9-hexahydro-1H-pyrazolo[3,4-b]quinoline-3-(2,2-dimethylpropyl)carboxamide] is 2.3-fold higher in IC50: 1.88 µM for the first, 4.23 µM for the second. The first is the more potent here.

`CC(C)(CO)CNC(=O)c1n[nH]c2c1C(C=Cc1ccc(-c3cccc(F)c3)cn1)C1=C(CC3(CCCC3)CC1=O)N2` (stereo not shown) [Example 31] and `CC(C)(CO)CNC(=O)c1n[nH]c2c1C(C=Cc1ccc(-c3cccc(F)c3)cn1)C1=C(CC3(CCC3)CC1=O)N2` (stereo not shown) [Example 36] are within 1.5-fold of each other in IC50: 0.38 µM for the first, 0.46 µM for the second.

First: O=C1CC2(CCCC2)CC2=C1C(C=Cc1ccc(-c3cccc(F)c3)cn1)c1c(C(=O)NCC3(CO)CCC3)n[nH]c1N2 (stereo not shown) [Example 33]
Second: O=C1CC2(CCCC2)CC2=C1[C@H](/C=C/c1ccc(-c3cccc(F)c3)cn1)c1c(C(=O)NCC3(CO)CC3)n[nH]c1N2 [Example 35]
The IC50 of the first is lower: under 0.4 µM for the first, 0.41 µM for the second.

Compared with `CN1C2=C(C(=O)CC3(CCCC3)C2)C(/C=C/c2ccc(-c3cccc(F)c3)cn2)c2c(C(=O)NCC(C)(C)C)n[nH]c21` (stereo not shown) [Example 37], `COC(C)(C)CNC(=O)c1n[nH]c2c1C(C=Cc1ccc(-c3cccc(F)c3)cn1)C1=C(CC3(CCCC3)CC1=O)N2` (stereo not shown) [Example 39] is 1.6-fold lower in IC50: 0.71 µM for the first, 0.45 µM for the second.

`O=C1CC2(CCCC2)CC2=C1C(/C=C/c1ccc(-c3cccc(F)c3)cn1)c1c(C(=O)NC[C@H]3C[C@@H](O)C3)n[nH]c1N2` (stereo partly shown) [Example 38] and `COCCNC(=O)c1n[nH]c2c1C(/C=C/c1ccc(-c3cccc(F)c3)cn1)C1=C(CC3(CCCC3)CC1=O)N2` (stereo not shown) [Example 43] are within 1.5-fold of each other in IC50: 0.82 µM for the first, 1.2 µM for the second.

First: COCCNC(=O)c1n[nH]c2c1C(/C=C/c1ccc(-c3cccc(F)c3)cn1)C1=C(CC3(CCC3)CC1=O)N2 (stereo not shown) [Example 46]
Second: CC(C)(CN)CNC(=O)c1n[nH]c2c1C(/C=C/c1ccc(-c3cccc(F)c3)cn1)C1=C(CC3(CCCC3)CC1=O)N2 (stereo not shown) [Example 50]
The IC50 of the first is 1.6-fold higher: 1.5 µM for the first, 0.91 µM for the second.

First: O=C1CC2(CCCC2)CC2=C1C(/C=C/c1ccc(-c3cccc(F)c3)cn1)c1c(C(=O)NC3CCCC3)n[nH]c1N2 (stereo not shown) [Example 47]
Second: CC1(CNC(=O)c2n[nH]c3c2C(/C=C/c2ccc(-c4cccc(F)c4)cn2)C2=C(CC4(CCCC4)CC2=O)N3)COC1 (stereo not shown) [Example 54]
The IC50 of the first is 1.7-fold higher: 1.4 µM for the first, 0.84 µM for the second.
